Where two headings read alike, the source gives them in different places.
Experiments:
Assay type in all cases: cell-based
[1] = system: MOLT-4; assay: NCI60 five-dose screen; conditions: Homo sapiens, MOLT-4
[2] = system: A549/ATCC; assay: NCI60 five-dose screen; conditions: Homo sapiens, A549
[3] = system: NCI-H226; assay: NCI60 five-dose screen; conditions: Homo sapiens, NCI-H226
[4] = system: HCT-116; assay: NCI60 five-dose screen; conditions: Homo sapiens, HCT-116
[5] = system: HCT-15; assay: NCI60 five-dose screen; conditions: Homo sapiens, HCT-15
[6] = system: HT29; assay: NCI60 five-dose screen; conditions: Homo sapiens, HT-29
[7] = system: SF-295; assay: NCI60 five-dose screen; conditions: Homo sapiens, SF-295
[8] = system: SNB-19; assay: NCI60 five-dose screen; conditions: Homo sapiens, SNB-19
[9] = system: M14; assay: NCI60 five-dose screen; conditions: Homo sapiens, M14
[10] = system: MDA-MB-435; assay: NCI60 five-dose screen; conditions: Homo sapiens, MDA-MB-435
[11] = system: SK-MEL-28; assay: NCI60 five-dose screen; conditions: Homo sapiens, SK-MEL-28
[12] = system: SK-MEL-5; assay: NCI60 five-dose screen; conditions: Homo sapiens, SK-MEL-5
[13] = system: UACC-257; assay: NCI60 five-dose screen; conditions: Homo sapiens, UACC-257
[14] = system: UACC-62; assay: NCI60 five-dose screen; conditions: Homo sapiens, UACC-62
[15] = system: OVCAR-3; assay: NCI60 five-dose screen; conditions: Homo sapiens, OVCAR-3
[16] = system: OVCAR-4; assay: NCI60 five-dose screen; conditions: Homo sapiens, OVCAR-4
[17] = system: OVCAR-8; assay: NCI60 five-dose screen; conditions: Homo sapiens, OVCAR-8
[18] = system: SK-OV-3; assay: NCI60 five-dose screen; conditions: Homo sapiens, SK-OV-3
[19] = system: 786-0; assay: NCI60 five-dose screen; conditions: Homo sapiens, 786-0
[20] = system: A498; assay: NCI60 five-dose screen; conditions: Homo sapiens, A498
[21] = system: SN12C; assay: NCI60 five-dose screen; conditions: Homo sapiens
[22] = system: MCF7; assay: NCI60 five-dose screen; conditions: Homo sapiens, MCF7
[23] = system: BT-549; assay: NCI60 five-dose screen; conditions: Homo sapiens, BT-549
[24] = system: Non-small Cell Lung Cancer panel; assay: NCI60 five-dose screen, panel mean; conditions: Homo sapiens
[25] = system: Colon Cancer panel; assay: NCI60 five-dose screen, panel mean; conditions: Homo sapiens
[26] = system: CNS Cancer panel; assay: NCI60 five-dose screen, panel mean; conditions: Homo sapiens
[27] = system: Ovarian Cancer panel; assay: NCI60 five-dose screen, panel mean; conditions: Homo sapiens
[28] = system: Renal Cancer panel; assay: NCI60 five-dose screen, panel mean; conditions: Homo sapiens
[29] = system: MOLT-4; assay: NCI60 one-dose screen; conditions: Homo sapiens, MOLT-4, read-out: Growth percent
[30] = system: NCI-H226; assay: NCI60 one-dose screen; conditions: Homo sapiens, NCI-H226, read-out: Growth percent
[31] = system: NCI-H23; assay: NCI60 one-dose screen; conditions: Homo sapiens, NCI-H23, read-out: Growth percent
[32] = system: COLO 205; assay: NCI60 one-dose screen; conditions: Homo sapiens, COLO 205, read-out: Growth percent
[33] = system: HCC-2998; assay: NCI60 one-dose screen; conditions: Homo sapiens, HCC 2998, read-out: Growth percent
[34] = system: HCT-15; assay: NCI60 one-dose screen; conditions: Homo sapiens, HCT-15, read-out: Growth percent
[35] = system: HT29; assay: NCI60 one-dose screen; conditions: Homo sapiens, HT-29, read-out: Growth percent
[36] = system: KM12; assay: NCI60 one-dose screen; conditions: Homo sapiens, KM12, read-out: Growth percent
[37] = system: SW-620; assay: NCI60 one-dose screen; conditions: Homo sapiens, SW-620, read-out: Growth percent
[38] = system: SF-268; assay: NCI60 one-dose screen; conditions: Homo sapiens, SF-268, read-out: Growth percent
[39] = system: SF-295; assay: NCI60 one-dose screen; conditions: Homo sapiens, SF-295, read-out: Growth percent
[40] = system: M14; assay: NCI60 one-dose screen; conditions: Homo sapiens, M14, read-out: Growth percent
[41] = system: OVCAR-8; assay: NCI60 one-dose screen; conditions: Homo sapiens, OVCAR-8, read-out: Growth percent
[42] = system: CAKI-1; assay: NCI60 one-dose screen; conditions: Homo sapiens, CAKI-1, read-out: Growth percent
[43] = system: RXF 393; assay: NCI60 one-dose screen; conditions: Homo sapiens, RXF 393, read-out: Growth percent
[44] = system: TK-10; assay: NCI60 one-dose screen; conditions: Homo sapiens, TK-10, read-out: Growth percent
[45] = system: PC-3; assay: NCI60 one-dose screen; conditions: Homo sapiens, PC-3, read-out: Growth percent
[46] = system: BT-549; assay: NCI60 one-dose screen; conditions: Homo sapiens, BT-549, read-out: Growth percent
[47] = system: MDA-MB-468; assay: NCI60 one-dose screen; conditions: Homo sapiens, MDA-MB-468, read-out: Growth percent

`CCC12C=CCN3CCC4(c5ccc(OC)cc5N(C)C4C(O)(C(=O)OC)C1OC(=O)CCC[P+](c1ccc(C)cc1)(c1ccc(C)cc1)c1ccc(C)cc1)C32` (centres unmarked) [9a] was tested, and the GI50 [1] was 294 nM, the GI50 [2] was 334 nM and the GI50 [3] was 521 nM. The GI50 [4] was 307 nM, the GI50 [5] was 1620 nM and the GI50 [6] was 219 nM. It also gave a GI50 [7] of 521 nM, a GI50 [8] of 306 nM and a GI50 [9] of 456 nM. It also gave a GI50 [10] of 331 nM, a GI50 [11] of 361 nM and a GI50 [12] of 532 nM. It also gave a GI50 [13] of 272 nM, a GI50 [14] of 275 nM and a GI50 [15] of 374 nM. It also gave a GI50 [16] of 370 nM, a GI50 [17] of 372 nM and a GI50 [18] of 290 nM. It also gave a GI50 [19] of 1060 nM, a GI50 [20] of 1630 nM and a GI50 [21] of 291 nM. For the same molecule, the GI50 [22] was 281 nM, the GI50 [23] was 247 nM and the GI50 ([24]; read-out: Mean GI50) was 410 nM. For the same molecule, the GI50 ([25]; read-out: Mean GI50) was 510 nM, the GI50 ([26]; read-out: Mean GI50) was 360 nM and the GI50 ([27]; read-out: Mean GI50) was 1570 nM. For the same molecule, the GI50 ([28]; read-out: Mean GI50) was 1050 nM, the activity at 10 µM [29] was -45.1% and the activity at 10 µM [30] was -77.4%. The activity at 10 µM [31] was -90.7%, the activity at 10 µM [32] was -50.2% and the activity at 10 µM [33] was -91.4%. The activity at 10 µM [34] was -91%, the activity at 10 µM [35] was -80.7% and the activity at 10 µM [36] was -76.1%. The activity at 10 µM [37] was -85.2%, the activity at 10 µM [38] was -46.3% and the activity at 10 µM [39] was -89.1%. It also gave an activity at 10 µM [40] of -85.3%, an activity at 10 µM [41] of -85% and an activity at 10 µM [42] of -95.3%. The activity at 10 µM [43] was -82.8%, the activity at 10 µM [44] was -88.5% and the activity at 10 µM [45] was -83.3%. It also gave an activity at 10 µM [46] of -96.9% and an activity at 10 µM [47] of -92.1%.
`CCC12C=CCN3CC[C@@]4(c5ccc(OC)cc5N(C)[C@H]4[C@@](O)(C(=O)OC)[C@@H]1OC(C)=O)[C@@H]32` (some centres unmarked) [compound 2, vindoline] showed an activity at 10 µM [29] of 103%, an activity at 10 µM [30] of 104% and an activity at 10 µM [31] of 103%. The activity at 10 µM [33] was 118%, the activity at 10 µM [34] was 99% and the activity at 10 µM [35] was 98.5%. It also gave an activity at 10 µM [36] of 102%, an activity at 10 µM [37] of 104% and an activity at 10 µM [38] of 100%. For the same molecule, the activity at 10 µM [39] was 99.5%, the activity at 10 µM [40] was 104% and the activity at 10 µM [41] was 99.8%. It also gave an activity at 10 µM [42] of 97.5%, an activity at 10 µM [43] of 104% and an activity at 10 µM [44] of 92.1%. For the same molecule, the activity at 10 µM [45] was 88.3%, the activity at 10 µM [46] was 114% and the activity at 10 µM [47] was 102%.
`CC[C@]12C=CCN3CC[C@@]4(c5ccc(OC)cc5N(C)[C@H]4[C@@](O)(C(=O)OC)[C@@H]1OC(=O)CCCC[P+](c1ccccc1)(c1ccccc1)c1ccccc1)[C@@H]32` [compound 4, reference compound] was tested, and the GI50 [2] was 1020 nM, the GI50 [3] was 1930 nM and the GI50 [4] was 1060 nM. It also gave a GI50 [5] of 18600 nM, a GI50 [6] of 404 nM and a GI50 [7] of 2750 nM. For the same molecule, the GI50 [8] was 397 nM, the GI50 [9] was 1790 nM and the GI50 [10] was 357 nM. The GI50 [11] was 532 nM, the GI50 [12] was 1710 nM and the GI50 [13] was 215 nM. It also gave a GI50 [14] of 403 nM, a GI50 [15] of 398 nM and a GI50 [16] of 326 nM. It also gave a GI50 [17] of 1740 nM, a GI50 [18] of 725 nM and a GI50 [19] of 2900 nM. It also gave a GI50 [20] of 2840 nM, a GI50 [21] of 467 nM and a GI50 [22] of 322 nM. It also gave a GI50 [23] of 583 nM, a GI50 ([24]; read-out: GI50 Mean) of 1440 nM and a GI50 ([25]; read-out: GI50 Mean) of 3190 nM. For the same molecule, the GI50 ([26]; read-out: GI50 Mean) was 940 nM, the GI50 ([27]; read-out: GI50 Mean) was 15100 nM and the GI50 ([28]; read-out: GI50 Mean) was 4870 nM. It also gave an activity at 10 µM [29] of 5.66%, an activity at 10 µM [30] of 15.1% and an activity at 10 µM [31] of 6.4%. The activity at 10 µM [32] was -93.7%, the activity at 10 µM [33] was 15.9% and the activity at 10 µM [34] was 99.3%. For the same molecule, the activity at 10 µM [35] was 2.65%, the activity at 10 µM [36] was 3.15% and the activity at 10 µM [37] was 29.4%. The activity at 10 µM [38] was 26.2%, the activity at 10 µM [39] was 58.1% and the activity at 10 µM [40] was 29.4%. The activity at 10 µM [41] was 18.6%, the activity at 10 µM [42] was 85.9% and the activity at 10 µM [43] was -13.3%. The activity at 10 µM [44] was 48.6%, the activity at 10 µM [46] was -1.04% and the activity at 10 µM [47] was -63.9%.

— article PMC12028158, “Synthesis and In Vitro Evaluation of the Anticancer Effect of Novel Phosphonium Vindoline Derivatives” (International Journal of Molecular Sciences, 2025)
